Data on two molecules can be found in EP4467141A1, “PYRAZOLO-QUINOLINES AS SELECTIVE INHIBITORS OF GENOTOXIC STRESS-INDUCED IKK/NF- KB PATHWAYS FOR CANCER THERAPY” (Max-Delbrück-Centrum für Molekulare Medizin in der …, priority 2023, dated 2024).

What all share (test): Kinase panel study
What all share (assay type): biochemical
Conditions in all cases: read-out: Percentage of inhibition; for inhibition at 1 µM: 1000nM; for inhibition at 10 µM: 10000nM

In one assay the target is T1, EPHA5 (Homo sapiens, UniProt P54756).
T1 construct: purchased Thermo Fisher Scientific
Summed up:
(§1)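 Single-point inhibition data at 10 µM or 1 µM compound are shown. They were generated in ZLyte- or Adapta-format biochemical assays performed externally under standard conditions.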

The next assay concerns the target T2, HIPK2 (Homo sapiens, UniProt Q9H2X6).
T2 construct: purchased Thermo Fisher Scientific
Summed up:
as §1

The target of the next assay is T3, KIT T670I (Homo sapiens, UniProt P10721, T670I).
T3 construct: purchased Thermo Fisher Scientific
Summed up:
as §1

For another assay, the target named is T4, NEK9 (Homo sapiens, UniProt Q8TD19).
T4 construct: purchased Thermo Fisher Scientific
T4 sequence (Q8TD19 1-979): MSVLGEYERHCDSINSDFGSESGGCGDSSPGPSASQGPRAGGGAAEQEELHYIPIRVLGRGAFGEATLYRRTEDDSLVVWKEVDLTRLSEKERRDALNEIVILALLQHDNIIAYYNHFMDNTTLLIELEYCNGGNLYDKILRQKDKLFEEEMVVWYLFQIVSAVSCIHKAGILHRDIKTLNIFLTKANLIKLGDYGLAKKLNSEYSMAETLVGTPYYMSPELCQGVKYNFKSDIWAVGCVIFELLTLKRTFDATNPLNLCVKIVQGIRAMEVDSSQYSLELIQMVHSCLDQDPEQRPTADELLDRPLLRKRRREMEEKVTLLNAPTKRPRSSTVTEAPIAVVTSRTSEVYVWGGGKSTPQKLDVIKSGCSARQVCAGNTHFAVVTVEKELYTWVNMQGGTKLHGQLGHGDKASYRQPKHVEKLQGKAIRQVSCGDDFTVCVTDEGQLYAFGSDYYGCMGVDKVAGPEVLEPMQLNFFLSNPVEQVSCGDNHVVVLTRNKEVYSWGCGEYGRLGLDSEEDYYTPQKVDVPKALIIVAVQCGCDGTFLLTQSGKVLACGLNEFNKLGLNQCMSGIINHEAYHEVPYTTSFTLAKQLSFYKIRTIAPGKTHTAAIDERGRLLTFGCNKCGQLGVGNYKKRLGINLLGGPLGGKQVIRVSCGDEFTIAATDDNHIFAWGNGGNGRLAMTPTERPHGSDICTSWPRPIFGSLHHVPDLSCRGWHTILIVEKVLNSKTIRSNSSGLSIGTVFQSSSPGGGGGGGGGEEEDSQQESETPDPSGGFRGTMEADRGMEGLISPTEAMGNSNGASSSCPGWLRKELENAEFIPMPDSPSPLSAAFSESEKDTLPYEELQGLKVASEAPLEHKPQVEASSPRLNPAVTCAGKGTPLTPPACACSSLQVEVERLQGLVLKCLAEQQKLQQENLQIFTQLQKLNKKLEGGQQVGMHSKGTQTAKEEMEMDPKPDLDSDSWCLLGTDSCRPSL
Summed up: as §1

The target of a further assay is T5, KSR2 (Homo sapiens, UniProt Q6VAB6).
T5 construct: purchased Thermo Fisher Scientific
T5 sequence (Q6VAB6 1-950): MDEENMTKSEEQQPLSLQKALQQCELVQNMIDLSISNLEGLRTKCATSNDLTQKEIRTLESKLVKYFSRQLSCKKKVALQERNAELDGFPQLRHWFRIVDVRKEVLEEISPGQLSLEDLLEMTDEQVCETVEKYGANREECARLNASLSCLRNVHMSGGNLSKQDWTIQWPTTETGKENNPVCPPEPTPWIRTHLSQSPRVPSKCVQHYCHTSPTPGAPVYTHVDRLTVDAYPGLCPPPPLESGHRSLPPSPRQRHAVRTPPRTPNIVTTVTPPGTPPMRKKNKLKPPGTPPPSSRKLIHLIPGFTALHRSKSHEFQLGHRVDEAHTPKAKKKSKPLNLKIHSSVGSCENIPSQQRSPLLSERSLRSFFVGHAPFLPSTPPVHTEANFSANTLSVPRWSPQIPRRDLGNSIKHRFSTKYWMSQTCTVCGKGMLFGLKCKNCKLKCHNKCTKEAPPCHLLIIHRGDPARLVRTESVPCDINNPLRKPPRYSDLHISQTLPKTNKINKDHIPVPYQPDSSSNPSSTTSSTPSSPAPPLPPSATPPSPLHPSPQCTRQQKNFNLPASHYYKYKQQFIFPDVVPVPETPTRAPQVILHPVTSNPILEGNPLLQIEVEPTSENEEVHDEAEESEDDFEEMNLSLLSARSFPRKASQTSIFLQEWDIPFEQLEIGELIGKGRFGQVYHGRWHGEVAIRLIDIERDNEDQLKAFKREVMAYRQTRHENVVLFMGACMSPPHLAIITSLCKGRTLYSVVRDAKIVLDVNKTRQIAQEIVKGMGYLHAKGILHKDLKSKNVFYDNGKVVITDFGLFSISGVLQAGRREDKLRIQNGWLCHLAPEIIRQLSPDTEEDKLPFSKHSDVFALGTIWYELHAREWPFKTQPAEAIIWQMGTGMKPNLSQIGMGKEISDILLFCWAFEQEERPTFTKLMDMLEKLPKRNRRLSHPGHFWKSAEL
Summed up: as §1

T2 sequence (Q9H2X6 whole entry): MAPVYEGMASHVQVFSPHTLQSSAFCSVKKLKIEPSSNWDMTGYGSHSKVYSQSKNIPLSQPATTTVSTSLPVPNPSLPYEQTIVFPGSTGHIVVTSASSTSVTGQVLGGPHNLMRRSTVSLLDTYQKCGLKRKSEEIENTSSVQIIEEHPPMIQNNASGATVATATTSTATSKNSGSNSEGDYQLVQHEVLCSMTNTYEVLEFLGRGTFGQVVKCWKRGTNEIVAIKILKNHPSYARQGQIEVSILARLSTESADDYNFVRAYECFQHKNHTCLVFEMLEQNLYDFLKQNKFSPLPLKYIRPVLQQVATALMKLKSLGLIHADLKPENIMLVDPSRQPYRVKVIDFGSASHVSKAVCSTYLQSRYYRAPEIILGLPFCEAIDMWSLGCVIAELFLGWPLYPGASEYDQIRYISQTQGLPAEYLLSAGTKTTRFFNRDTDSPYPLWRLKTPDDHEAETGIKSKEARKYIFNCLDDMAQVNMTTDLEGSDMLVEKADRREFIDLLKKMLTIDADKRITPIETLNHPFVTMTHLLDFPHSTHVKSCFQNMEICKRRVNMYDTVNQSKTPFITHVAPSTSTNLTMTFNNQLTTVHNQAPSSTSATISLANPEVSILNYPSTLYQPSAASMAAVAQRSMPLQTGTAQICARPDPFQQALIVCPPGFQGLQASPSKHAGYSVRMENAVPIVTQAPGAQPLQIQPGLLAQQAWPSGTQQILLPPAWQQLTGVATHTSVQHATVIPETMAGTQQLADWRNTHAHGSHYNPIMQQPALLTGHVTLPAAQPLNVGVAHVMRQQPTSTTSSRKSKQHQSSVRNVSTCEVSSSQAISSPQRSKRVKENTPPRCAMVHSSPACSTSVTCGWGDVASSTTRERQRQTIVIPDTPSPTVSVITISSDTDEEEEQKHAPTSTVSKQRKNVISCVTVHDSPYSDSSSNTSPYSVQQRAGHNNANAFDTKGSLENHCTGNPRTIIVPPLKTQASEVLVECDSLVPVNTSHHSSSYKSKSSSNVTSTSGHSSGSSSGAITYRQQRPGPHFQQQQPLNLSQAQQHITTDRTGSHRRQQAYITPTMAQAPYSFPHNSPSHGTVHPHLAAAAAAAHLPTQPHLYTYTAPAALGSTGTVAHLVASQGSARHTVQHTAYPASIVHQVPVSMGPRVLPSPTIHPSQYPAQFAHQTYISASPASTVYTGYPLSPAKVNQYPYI
T3 sequence (P10721 26-976 T670I): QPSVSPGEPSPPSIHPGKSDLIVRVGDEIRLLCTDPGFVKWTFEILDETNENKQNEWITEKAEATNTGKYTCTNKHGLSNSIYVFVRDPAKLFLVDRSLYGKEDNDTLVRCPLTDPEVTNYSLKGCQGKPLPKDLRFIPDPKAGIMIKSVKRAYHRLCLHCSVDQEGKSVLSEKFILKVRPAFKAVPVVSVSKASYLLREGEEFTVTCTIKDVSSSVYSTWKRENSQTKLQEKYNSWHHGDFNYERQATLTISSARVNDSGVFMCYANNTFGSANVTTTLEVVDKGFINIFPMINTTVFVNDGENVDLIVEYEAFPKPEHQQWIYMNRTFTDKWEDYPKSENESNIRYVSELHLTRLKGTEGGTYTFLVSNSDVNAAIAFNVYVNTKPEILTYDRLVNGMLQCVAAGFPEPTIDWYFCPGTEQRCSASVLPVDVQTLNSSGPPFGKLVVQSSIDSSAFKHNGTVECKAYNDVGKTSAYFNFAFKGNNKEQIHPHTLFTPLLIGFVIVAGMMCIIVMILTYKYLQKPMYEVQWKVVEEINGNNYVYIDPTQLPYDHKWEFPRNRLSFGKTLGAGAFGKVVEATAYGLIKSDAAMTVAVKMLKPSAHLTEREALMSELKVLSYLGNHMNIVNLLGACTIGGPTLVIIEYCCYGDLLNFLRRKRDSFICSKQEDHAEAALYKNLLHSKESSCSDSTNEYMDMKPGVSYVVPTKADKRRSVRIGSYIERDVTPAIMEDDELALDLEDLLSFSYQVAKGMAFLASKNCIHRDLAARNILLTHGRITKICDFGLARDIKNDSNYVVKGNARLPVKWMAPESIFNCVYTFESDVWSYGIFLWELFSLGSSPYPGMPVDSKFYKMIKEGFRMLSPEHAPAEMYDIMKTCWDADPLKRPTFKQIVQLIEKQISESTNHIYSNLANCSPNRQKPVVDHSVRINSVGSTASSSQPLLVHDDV
T1 sequence (P54756 25-1037): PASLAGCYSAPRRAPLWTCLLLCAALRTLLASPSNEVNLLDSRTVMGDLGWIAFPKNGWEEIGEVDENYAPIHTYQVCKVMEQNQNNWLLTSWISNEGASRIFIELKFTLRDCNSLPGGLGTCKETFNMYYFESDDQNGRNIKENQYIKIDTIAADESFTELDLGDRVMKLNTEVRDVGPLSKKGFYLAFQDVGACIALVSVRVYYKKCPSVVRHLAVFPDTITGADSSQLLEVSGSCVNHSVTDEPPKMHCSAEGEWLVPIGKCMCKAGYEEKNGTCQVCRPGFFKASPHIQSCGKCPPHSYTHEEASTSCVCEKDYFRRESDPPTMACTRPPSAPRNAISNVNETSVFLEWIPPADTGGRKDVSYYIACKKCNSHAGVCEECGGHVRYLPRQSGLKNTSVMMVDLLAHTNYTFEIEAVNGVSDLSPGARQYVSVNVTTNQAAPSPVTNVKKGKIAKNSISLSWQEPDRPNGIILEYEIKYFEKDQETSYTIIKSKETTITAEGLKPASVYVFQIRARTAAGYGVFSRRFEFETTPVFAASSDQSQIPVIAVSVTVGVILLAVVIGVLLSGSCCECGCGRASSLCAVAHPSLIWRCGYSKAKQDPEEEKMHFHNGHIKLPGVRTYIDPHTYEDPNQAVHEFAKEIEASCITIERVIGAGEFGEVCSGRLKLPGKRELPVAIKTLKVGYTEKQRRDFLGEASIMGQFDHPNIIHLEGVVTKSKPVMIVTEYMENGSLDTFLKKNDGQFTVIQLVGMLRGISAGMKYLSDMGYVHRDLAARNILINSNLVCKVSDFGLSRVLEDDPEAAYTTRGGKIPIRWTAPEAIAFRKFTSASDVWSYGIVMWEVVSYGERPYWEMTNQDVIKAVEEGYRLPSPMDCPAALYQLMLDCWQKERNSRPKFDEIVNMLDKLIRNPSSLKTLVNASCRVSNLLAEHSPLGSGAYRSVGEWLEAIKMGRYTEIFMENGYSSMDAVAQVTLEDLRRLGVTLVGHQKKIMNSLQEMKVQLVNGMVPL

On to `COc1ccc2c(c1OC)c(=O)n1c3ccc(O)cc3c3ccnc2c31` [MW01, 5-Hydroxy-10,11-dimethoxy-9H-benzo[c]indolo[3,2,1-ij][1,5]naphthyridin-9-one], for which the inhibition at 1 µM on EPHA5 was -4%; at HIPK2 it was 48%; on KIT T670I, 1%; on NEK9, 4%; at KSR2, 5%. In addition, the inhibition at 10 µM at EPHA5 was 7%; on HIPK2 it was 74%; at KIT T670I it was 13%; at NEK9, 9%; on KSR2 it was 8%.

`COc1ccc2cc3c(N)nn(C(=O)c4cccc(N(C)C)c4)c3nc2c1` [MW05, (3-Amino-7-methoxypyrazolo[3,4-b]quinolin-1-yl)-[3-(dimethylamino)phenyl]methanone]: the inhibition at 1 µM was -8% at EPHA5; 4% on HIPK2; -1% on KIT T670I; 6% on NEK9; 7% on KSR2. Besides, the inhibition at 10 µM was -16% on EPHA5; 13% at HIPK2; -13% at KIT T670I; 5% on NEK9; -2% on KSR2.
